“And” between values parts separate entries of the source, which are not always exact repeats. Identical values can stand only once.
System: PC-3-KQ and PC-3-KR cells
Assay: RNA-sequencing and differential gene expression
Assay type: cell-based, human
Design: CEP19 tpm_KQ_NTZ / CCNA1 tpm_KQ_NTZ / BTN3A3 tpm_KQ_NTZ / CAPSL tpm_KQ_NTZ / CELF3 tpm_KQ_NTZ / C5orf63 tpm_KQ_NTZ / tpm MSMP / tpm MYH7B / tpm CACNG8 / CNTNAP3B tpm_KQ_NTZ / IL21R tpm_KQ_NTZ / CYP8B1 tpm_KQ_NTZ / C2orf78 tpm_KQ_NTZ / CALB1 tpm_KQ_NTZ / COL4A3 tpm_KQ_NTZ / CFB tpm_KQ_NTZ / PFKFB1 tpm_KQ_NTZ / BTBD11 tpm_KQ_NTZ: scale not given here
Conditions: RNA-Seq
[1] = PC-3-KQ cells with NTZ, replicates NTZ1-3, listed as NTZ

SMILES: CC(=O)Oc1ccccc1C(=O)Nc1ncc([N+](=O)[O-])s1 [Nitazoxanide]
- tpm DMPK [1]: 0.419 and 0.3493 and 0.1665
- tpm DRP2 [1]: -0.6676 and -1.3 and -0.607
- tpm ECM2 [1]: -0.5146 (2×) and 0.2506
- tpm FAM186B [1]: -0.5789 and -0.1828 and -0.4779
- tpm FER1L6 [1]: -0.0478 and 0.008832 and -0.09563
- tpm FLT1 [1]: 0.161 and -0.1482 and -0.7906
- tpm FSD2 [1]: -0.9288 and -1.378 and -0.8049
- tpm FTH1 [1]: 1.05 and 1.051 and 1.128
- tpm FXYD3 [1]: -0.3733 and -0.2655 and -0.4971
- tpm GALNT12 [1]: 0.1641 and 0.2605 and 0.1597
- tpm GRAMD2A [1]: -1.217 and -0.8334 and -0.5772
- tpm HID1 [1]: 1.101 and 0.7299 and 0.9267
- tpm HPSE2 [1]: -0.4281 and -0.1645 and -0.06191
- tpm IDO1 [1]: -0.05198 and -0.1635 and 0.07694
- tpm IGDCC4 [1]: 1.025 and 0.5822 and 0.3088
- tpm INHBA [1]: -0.4046 and -0.5562 and -0.8145
- tpm INHBB [1]: 0.08661 and -0.02356 and -0.07924
- tpm KIAA1755 [1]: -0.4724 and -0.3852 and -0.1722
- tpm KLHDC7B [1]: 1.013 and 1.073 and 1.158
- tpm LOC105374299 [1]: 0.8275 and 1.276 and 1.486
- tpm LOC107987158 [1]: 0.1622 and -0.3121 and -1.443
- tpm LONRF2 [1]: 0.1017 (2×) and -0.7266
- tpm MAP7D3 [1]: 0.1661 and 0.1563 and -0.001507
- tpm MEF2C [1]: 0.3074 (2×) and -0.8164
- tpm MEOX1 [1]: -0.388 and -0.5893 and -0.8851
- tpm MINAR1 [1]: 1.487 and 0.4714 and 0.64
- tpm MSMP [1]: -0.1946 and -0.01672 and -0.03466
- tpm MUC4 [1]: 0.5142 and 1.164 and 1.212
- tpm MYH7B [1]: -0.4262 and -0.2568 and 0.1543
- tpm PDGFRL [1]: 0.618 and 0.4346 and 0.4486
- tpm PLEKHA7 [1]: -0.3096 and -0.2197 and -0.3271
- tpm PLEKHG1 [1]: -0.07347 and -0.05792 and -0.2
- tpm PRRT4 [1]: 0.01578 and 0.2412 and 0.04865
- tpm RORC [1]: 0.6069 and 0.189 and 1.342
- tpm RP1L1 [1]: -0.07855 and -0.3562 and -1.072
- tpm RPP25 [1]: 0.2387 and 0.2331 and 0.2609
- tpm SAT1 [1]: 0.7632 and 0.7179 and 0.7837
- tpm SAXO2 [1]: -1.3 and 0.5697 and 0.468
- tpm SERPINA5 [1]: 0.2889 and 0.09986 and -0.2457
- tpm SERPINB3 [1]: -1.23 and -0.7997 and -0.9984
- tpm SERPINF2 [1]: 0.3503 and 0.1655 and 0.444
- tpm SGK3 [1]: -0.2978 and 0.6129 and 0.5003
- tpm SLC22A4 [1]: -0.6184 and -1.014
- tpm SLFN11 [1]: -0.5865 and -0.5524 (2×)
- tpm SRPX [1]: 0.5121 and 0.498 and 0.6168
- tpm STARD4 [1]: 0.9661 and 0.7143
- tpm SVEP1 [1]: -0.8267 and -1.268 and -1.176
- tpm TBX2 [1]: 0.468 and 0.2574 and 0.908
- tpm TCN1 [1]: 0.4136 and 0.08826 and 0.5034
- tpm TNF [1]: 0.3176 and 0.1804
- tpm TNFRSF6B [1]: -0.5827 and 0.1186 and -0.2431
- tpm TNFSF14 [1]: 1.093 and 1.162 and 1.079
- tpm TRIM31 [1]: -0.6801 and -0.02951 and -0.5211
- tpm UGT2B7 [1]: -0.4066 and -0.3815 and -0.4168
- tpm XKRX [1]: -0.4846 and 0.05471 and 0.3317
- tpm ZNF28 [1]: 0.116 and -1.142 and -0.2155
- tpm ZNF302 [1]: -0.4799 and 0.1803 and -0.08669
- AADACL3 Change (KQ-Control vs KQ-NTZ) (PC-3-KQ cells): DOWN
- AADACL3 logFC (KQ-Control vs KQ-NTZ) (PC-3-KQ cells): -1.5511
- ABCA1 Change (KQ-Control vs KQ-NTZ) (PC-3-KQ cells): DOWN
- ABCA1 logFC (KQ-Control vs KQ-NTZ) (PC-3-KQ cells): -1.1023
- ABCB4 Change (KQ-Control vs KQ-NTZ) (PC-3-KQ cells): DOWN
- ABCB4 logFC (KQ-Control vs KQ-NTZ) (PC-3-KQ cells): -1.0876
- ADORA1 Change (KQ-Control vs KQ-NTZ) (PC-3-KQ cells): DOWN
- ADORA1 logFC (KQ-Control vs KQ-NTZ) (PC-3-KQ cells): -0.6297
- ANKRD36C Change (KQ-Control vs KQ-NTZ) (PC-3-KQ cells): DOWN
- ANKRD36C logFC (KQ-Control vs KQ-NTZ) (PC-3-KQ cells): -0.823
- ANKRD63 Change (KQ-Control vs KQ-NTZ) (PC-3-KQ cells): DOWN
- ANKRD63 logFC (KQ-Control vs KQ-NTZ) (PC-3-KQ cells): -0.8191
- ANXA8L1 Change (KQ-Control vs KQ-NTZ) (PC-3-KQ cells): DOWN
- ANXA8L1 logFC (KQ-Control vs KQ-NTZ) (PC-3-KQ cells): -1.2337
- APLN Change (KQ-Control vs KQ-NTZ) (PC-3-KQ cells): DOWN
- APLN logFC (KQ-Control vs KQ-NTZ) (PC-3-KQ cells): -0.8669
- ARL10 Change (KQ-Control vs KQ-NTZ) (PC-3-KQ cells): DOWN
- ARL10 logFC (KQ-Control vs KQ-NTZ) (PC-3-KQ cells): -0.6715
- ARX logFC (KQ-Control vs KQ-NTZ) (PC-3-KQ cells): 0.8688
- ASB2 Change (KQ-Control vs KQ-NTZ) (PC-3-KQ cells): DOWN
- ASB2 logFC (KQ-Control vs KQ-NTZ) (PC-3-KQ cells): -1.5518
- ASRGL1 Change (KQ-Control vs KQ-NTZ) (PC-3-KQ cells): DOWN
- ASRGL1 logFC (KQ-Control vs KQ-NTZ) (PC-3-KQ cells): -0.6209

— article PMC9945734 (BMC Medicine, 2023)
